ChEMBL document CHEMBL2396519, “Structure-based design of β-site APP cleaving enzyme 1 (BACE1) inhibitors for the treatment of Alzheimer's disease” (J Med Chem, 2013)

Assays:
Mus musculus [1] = assay: Inhibition of BACE1 in TASTPM mouse assessed as reduced brain Abeta42 at 250 mg/kg, po bid after 5 days; format: functional; conditions: 120 h
Mus musculus [2] = assay: Inhibition of BACE1 in TASTPM mouse assessed as reduced brain Abeta40 at 250 mg/kg, po bid after 5 days; format: functional; conditions: 120 h
[3] = target: Beta-secretase 1 (Homo sapiens) (UniProt P56817); assay: Inhibition of BACE1 (unknown origin) in a cell-based assay
Chain of Beta-secretase 1 (Homo sapiens) (P56817 whole entry): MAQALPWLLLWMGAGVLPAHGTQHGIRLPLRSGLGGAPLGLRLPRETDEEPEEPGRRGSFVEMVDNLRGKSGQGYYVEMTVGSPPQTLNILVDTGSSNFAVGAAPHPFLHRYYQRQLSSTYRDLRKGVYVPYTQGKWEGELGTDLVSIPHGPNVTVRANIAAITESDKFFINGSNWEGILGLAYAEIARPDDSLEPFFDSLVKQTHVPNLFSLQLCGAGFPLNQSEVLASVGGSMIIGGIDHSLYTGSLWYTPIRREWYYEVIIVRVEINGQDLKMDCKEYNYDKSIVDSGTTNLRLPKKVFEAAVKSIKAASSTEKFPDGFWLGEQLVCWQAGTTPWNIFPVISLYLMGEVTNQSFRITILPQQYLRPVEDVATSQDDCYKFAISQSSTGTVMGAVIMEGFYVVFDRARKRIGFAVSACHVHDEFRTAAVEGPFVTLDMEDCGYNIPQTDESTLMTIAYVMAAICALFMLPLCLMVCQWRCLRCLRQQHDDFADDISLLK

[4] = target: T1, Beta-secretase 2 (Homo sapiens) (UniProt Q9Y5Z0); assay: Inhibition of BACE2 (unknown origin)
T1 sequence (whole entry): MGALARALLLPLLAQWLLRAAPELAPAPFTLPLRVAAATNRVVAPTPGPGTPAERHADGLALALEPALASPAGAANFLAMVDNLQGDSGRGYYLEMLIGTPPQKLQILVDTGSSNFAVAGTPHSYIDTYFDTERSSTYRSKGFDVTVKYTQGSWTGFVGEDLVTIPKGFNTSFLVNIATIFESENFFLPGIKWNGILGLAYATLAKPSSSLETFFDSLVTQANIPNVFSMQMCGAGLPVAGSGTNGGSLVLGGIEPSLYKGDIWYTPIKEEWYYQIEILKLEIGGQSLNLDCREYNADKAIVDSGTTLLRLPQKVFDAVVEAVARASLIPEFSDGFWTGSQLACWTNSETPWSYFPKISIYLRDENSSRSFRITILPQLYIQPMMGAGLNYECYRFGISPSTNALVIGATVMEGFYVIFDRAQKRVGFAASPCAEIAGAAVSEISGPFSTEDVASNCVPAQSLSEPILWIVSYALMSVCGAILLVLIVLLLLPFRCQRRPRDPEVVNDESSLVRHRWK

[5] = target: Beta-secretase 1 (Homo sapiens) (UniProt P56817); assay: Inhibition of human recombinant BACE1 using MBP-C12Swe as substrate by FRET assay
Homo sapiens [6] = assay: Inhibition of BACE1 in alzheimer's disease patient assessed as reduction of CSF Abeta level at 35 mg/kg; format: functional
Homo sapiens [7] = assay: Inhibition of BACE1 in alzheimer's disease patient assessed as reduction of CSF Abeta level at 15 mg/kg; format: functional
Homo sapiens [8] = assay: Inhibition of BACE1 in alzheimer's disease patient assessed as reduction of plasma Abeta40 level at 90 mg/kg after 7 hrs; format: functional
Homo sapiens [9] = assay: Inhibition of BACE1 in alzheimer's disease patient assessed as reduction of plasma Abeta40 level at 90 mg/kg after 24 hrs; format: functional
Canis familiaris [10] = assay: Inhibition of BACE1 in beagle dog assessed as reduced plasma Abeta level at 5 mg/kg, po after 4 to 12 hrs; format: functional; conditions: Canis lupus familiaris
Canis familiaris [11] = assay: Inhibition of BACE1 in beagle dog assessed as reduced CSF Abeta level at 5 mg/kg, po after 3 hrs; format: functional; conditions: Canis lupus familiaris
Canis familiaris [12] = assay: Inhibition of BACE1 in beagle dog assessed as reduced CSF Abeta level at 5 mg/kg, po after 9 hrs; format: functional; conditions: Canis lupus familiaris
[13] = Half life in beagle dog at 5 mg/kg, po; format: ADME, organism-based, Canis lupus familiaris; parameters: dose 5 mg/kg, route oral; conditions: in vivo
Brain [14] = assay: Drug uptake in mouse brain at 100 mg/kg, po; format: ADME, organism-based; parameters: dose 100 mg/kg, route oral; conditions: in vivo
[15] = Plasma concentration in beagle dog at 5 mg/kg, po after 1 hr; format: ADME, organism-based, Canis lupus familiaris; parameters: dose 5 mg/kg, route oral
Brain [16] = assay: Drug uptake in mouse brain at 10 mg/kg, po; format: ADME, organism-based; parameters: dose 10 mg/kg, route oral; conditions: in vivo
Brain [17] = assay: Drug uptake in mouse brain at 30 mg/kg, po; format: ADME, organism-based; parameters: dose 30 mg/kg, route oral; conditions: in vivo
Sus scrofa = species on record: Sus scrofa; assay: Inhibition of pig gastric mucosa pepsin
Renin (Homo sapiens) = target: T2, Renin (Homo sapiens) (UniProt P00797); assay: Inhibition of recombinant renin (unknown origin)
T2 sequence (whole entry): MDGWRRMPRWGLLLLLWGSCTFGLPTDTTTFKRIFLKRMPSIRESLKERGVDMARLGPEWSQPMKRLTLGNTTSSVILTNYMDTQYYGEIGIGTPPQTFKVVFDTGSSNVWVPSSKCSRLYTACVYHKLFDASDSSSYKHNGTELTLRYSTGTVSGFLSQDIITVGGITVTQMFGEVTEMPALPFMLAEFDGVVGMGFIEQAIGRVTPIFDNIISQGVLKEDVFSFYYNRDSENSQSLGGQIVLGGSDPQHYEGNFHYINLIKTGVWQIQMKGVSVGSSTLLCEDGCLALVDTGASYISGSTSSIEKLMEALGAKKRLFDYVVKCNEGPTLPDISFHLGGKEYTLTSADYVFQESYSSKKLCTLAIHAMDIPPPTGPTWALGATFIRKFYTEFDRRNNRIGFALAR

[18] = target: Cathepsin D (Homo sapiens) (UniProt P07339); assay: Inhibition of human liver Cathepsin D
Chain of Cathepsin D (Homo sapiens) (P07339 65-162 limits assumed): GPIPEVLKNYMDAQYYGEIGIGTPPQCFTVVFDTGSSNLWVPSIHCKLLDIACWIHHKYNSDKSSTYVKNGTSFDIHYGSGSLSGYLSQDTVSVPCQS
Chain of Cathepsin D (Homo sapiens) (P07339 169-412 limits assumed): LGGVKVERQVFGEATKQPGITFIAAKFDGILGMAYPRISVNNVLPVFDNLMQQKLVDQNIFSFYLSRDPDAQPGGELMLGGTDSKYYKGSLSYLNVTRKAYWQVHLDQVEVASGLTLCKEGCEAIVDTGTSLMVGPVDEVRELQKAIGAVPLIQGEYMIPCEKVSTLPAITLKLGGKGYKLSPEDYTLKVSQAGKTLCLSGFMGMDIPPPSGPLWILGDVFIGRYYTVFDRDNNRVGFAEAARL

[19] = target: T1, Beta-secretase 2 (Homo sapiens); assay: Inhibition of human BACE2 by mcaFRET assay
[20] = target: Beta-secretase 1 (Homo sapiens) (UniProt P56817); assay: Inhibition of BACE1 in HEK293 cells; format: cell-based

`CCNc1cc(C(=O)N[C@@H](Cc2ccccc2)[C@H](O)CNCc2cccc(C(F)(F)F)c2)cc(N2CCCCS2(=O)=O)c1` gave an inhibition in vivo at 250 mg/kg (Mus musculus [1]) of 23% and an inhibition in vivo at 250 mg/kg (Mus musculus [2]) of 18%.
Compound `C[C@@H](NC(=O)c1cc(C(=O)N[C@@H](Cc2ccccc2)[C@H](O)[C@@H]2NC(C)(C)N(Cc3ccccc3)C2=O)cc(N(C)S(C)(=O)=O)c1)c1ccc(F)cc1` has an INH [3] of 0.03 µM.
`CC(C)C[C@H](NC(=O)[C@@H]1CC(=O)NCCCCCCOC(=O)N[C@@H](C(C)C)C(=O)N1)[C@@H](O)C[C@@H](C)C(=O)N[C@H](C(=O)NCc1ccccc1)C(C)C` showed an INH [4] of 0.0045 µM and an INH [3] of 4 µM.
With `C[C@@H]1N[C@@H]([C@@H](O)[C@H](Cc2ccccc2)NC(=O)c2cc(C(=O)N[C@H](C)c3ccc(F)cc3)cc(N(C)S(C)(=O)=O)c2)C(=O)N1Cc1ccccc1` the INH [3] was 0.028 µM.
`Cc1ccc2c(c1)CSC(N)=N2` gave an INH [5] of 790 µM.
With `C[C@@]1(c2cccc(-c3cncnc3)c2)CCSC(N)=N1` the INH [5] was 0.92 µM.
With `NC1=N[C@@]2(c3cc(NC(=O)c4ccc(F)cn4)ccc3F)COC[C@H]2CS1` [LY-2886721] the inhibition in vivo at 35 mg/kg (Homo sapiens [6]) was 60% and the inhibition in vivo at 15 mg/kg (Homo sapiens [7]) was 30%.
`C[C@@]1(c2cc(-c3cncnc3)c(F)cc2F)CCSC(N)=N1` [LY-2811376] gave an inhibition in vivo at 90 mg/kg (Homo sapiens [8]) of 80%, an inhibition in vivo at 90 mg/kg (Homo sapiens [9]) of 64% and an inhibition in vivo at 5 mg/kg (Canis familiaris [10]) of 85%. It also gave an inhibition in vivo at 5 mg/kg (Canis familiaris [11]) of 43%, an inhibition in vivo at 5 mg/kg (Canis familiaris [12]) of 70% and a half-life [13] of 6.8 h. For the same compound, the Drug uptake (Brain [14]) was 12.12 µg/g, the concentration at 1 h [15] was 1920 ng/mL and the Drug uptake (Brain [16]) was 1.46 µg/g. For the same compound, the Drug uptake (Brain [17]) was 3.35 µg/g, the INH (Sus scrofa) was 32.6 µM and the INH (Renin (Homo sapiens)) was 39 µM. The INH [18] was 15.7 µM, the INH [19] was 2.8 µM and the INH [20] was 0.3 µM. For the same compound, the INH [5] was 0.24 µM.
With `C[C@@H](NC(=O)c1cc(C(=O)N[C@@H](Cc2ccccc2)[C@H](O)[C@@H]2NC(C)(C)N(C)C2=O)cc(N(C)S(C)(=O)=O)c1)c1ccc(F)cc1` the INH [3] was 18 µM.
